Laboratory results from patent US20260355325A1, “DIMER COMPOUNDS” (KESMALEA THERAPEUTICS LIMITED, priority 2023, published 2026).

Tests used:
AR (Androgen Receptor) = molecular target: T1, AR (Androgen Receptor) (Homo sapiens, UniProt P10275); assay: AR IFA Assay (androgen receptor degradation in LNCaP and VCaP cells); assay type: cell-based; conditions: AR degradation in cells (LNCaP, VCaP) at 48-hour timepoint
T1 construct: immunofluorescence degradation readout (antibody D6F11), 48 h
T1 sequence (P10275 1-920): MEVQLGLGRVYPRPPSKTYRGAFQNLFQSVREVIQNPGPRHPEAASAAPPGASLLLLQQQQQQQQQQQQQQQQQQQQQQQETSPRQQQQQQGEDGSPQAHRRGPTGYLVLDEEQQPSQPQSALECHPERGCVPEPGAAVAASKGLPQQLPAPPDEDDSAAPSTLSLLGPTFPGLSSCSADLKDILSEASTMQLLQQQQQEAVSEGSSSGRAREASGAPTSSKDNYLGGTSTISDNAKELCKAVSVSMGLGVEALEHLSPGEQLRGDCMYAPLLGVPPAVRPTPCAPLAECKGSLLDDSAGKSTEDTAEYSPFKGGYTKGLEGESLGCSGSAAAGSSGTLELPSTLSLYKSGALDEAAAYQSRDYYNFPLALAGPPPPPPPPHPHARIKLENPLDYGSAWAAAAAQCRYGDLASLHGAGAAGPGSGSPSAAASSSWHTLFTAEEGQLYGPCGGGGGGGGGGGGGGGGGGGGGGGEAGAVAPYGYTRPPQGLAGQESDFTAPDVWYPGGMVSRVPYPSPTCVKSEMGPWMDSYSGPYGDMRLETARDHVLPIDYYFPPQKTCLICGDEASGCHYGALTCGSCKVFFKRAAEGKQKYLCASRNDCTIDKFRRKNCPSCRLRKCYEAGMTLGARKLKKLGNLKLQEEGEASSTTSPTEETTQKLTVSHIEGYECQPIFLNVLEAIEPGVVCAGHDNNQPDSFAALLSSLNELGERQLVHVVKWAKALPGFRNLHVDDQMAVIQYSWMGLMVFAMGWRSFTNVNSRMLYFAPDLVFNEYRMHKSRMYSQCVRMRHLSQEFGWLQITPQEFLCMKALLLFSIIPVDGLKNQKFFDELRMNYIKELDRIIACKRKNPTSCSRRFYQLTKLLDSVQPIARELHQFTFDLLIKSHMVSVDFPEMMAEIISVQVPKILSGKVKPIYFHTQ
Source text: The purpose of the AR Assays were to assess the binding affinity of the dimer to AR and subsequent protein degradation.
(§1) LNCaP, and VCaP cells were obtained from ATCC (ATCC, Manassas, VA). LNCaP cells were maintained in RPMI 1640 (Invitrogen™, Waltham, MA) supplemented with 10% FBS (AusGeneX, Molendinar, Australia) and 1% penicillin/streptomycin (Invitrogen™, Waltham, MA). VCaP cells were maintained in 1:1 ratio F-12(HAM) Nutrient mixture (AdvanCell Technology, Taichung city, Taiwan) and DMEM (Invitrogen™, Waltham, MA) supplemented with 10% FBS (AusGeneX, Molendinar, Australia) and 1% penicillin/streptomycin (Invitrogen™, Waltham, MA).
Compounds were dissolved in DMSO (10 mM), serially diluted from 10 mM to 1.5 nM, and pre-incubated for 2 hours. Exponentially growing cells were seeded at 8×10^3 cells per well of 384 well plate (Corning, New York #356663). Cells were treated with compound for 48 hours. Following treatment, cells were fixed with 4% PFA (SolarBio Lifescience, Beijing, China) for 20 minutes, permeabilised in 100% ice-cold methanol (Merck, Darmstadt, Germany) for 10 minutes, and blocked with blocking buffer (LI-COR Biosciences Lincoln, NE) for 90 minutes. Cells were incubated with primary Androgen Receptor (D6F11) XP® Rabbit mAb antibody (CST #5153 Danvers, MA) at 1:1000 dilution overnight in blocking buffer (LI-COR, Lincoln, NE) at 4° C. Cells were washed in DPBS (Thermo Fisher Scientific, Waltham, MA) and incubated with secondary antibody AlexaFluor 488 goat anti rabbit (Invitrogen™ #A-11008 Waltham, MA) 1:1000 dilution, with Hoechst stain (Invitrogen™ Waltham, MA) 1:5000 dilution in blocking buffer (LI-COR Biosciences, Lincoln, NE) for 90 minutes. After final DPBS wash, 200 ul of DPBS was added to the cells, and signal read on Operetta (Revvity, Waltham, MA). Each data point was performed in duplicate for every experiment. A DC50 value was calculated from linear regression analysis of the plots.

[1] = system: 22RV-1, LNCaP, and VCaP cells; assay: AR CTG Assay (Cell Titer-Glo cell viability); assay type: cell-based; conditions: Cell viability in cells at 24-hour timepoint (22RV-1, LNCaP, VCaP; line not stated)
Source text: as §1, with “22RV-1, LNCaP,” for “LNCaP,”, “VA). 22RV-1 and” for “VA).”
Compounds were dissolved in DMSO (10 mM), serially diluted from 10 mM to 1.5 nM, and pre-incubated for 2 hours. Exponentially growing cells were seeded at 8×10^3 cells per well of 384 well plate (Corning, New York #3570). Cells were treated with compound for 24 hours. Following treatment, Cell Titer-Glo® Detection reagent (Promega Corporation, Madison, WA) was added according to manufacturer's instructions, and signal read using BMG CLARIOstar plate reader (BMG Labtech, Ortenburg, Germany). Each data point was performed in duplicate for every experiment. A GI50 value was calculated from linear regression analysis of the plots.

| SMILES | DC50 (AR (Androgen Receptor)) | IC50 [1] |
| --- | --- | --- |
| Cc1cc(C(=O)N(C)CCCOc2cccc3c2CN(C2CCC(=O)NC2=O)C3=O)ccc1B1O[C@H]2C[C@H]3C[C@H](C3(C)C)[C@@]2(CCCNc2ccc(C(=O)N[C@H]3CC[C@H](Oc4ccc(C#N)c(Cl)c4)CC3)cc2)O1 (mixture of isomers) [Example 23, 4-((3aR,4R,6R,7aS)-3a-(3-((4-((trans-4-(3-chloro-4-cyanophenoxy)cyclohexyl)carbamoyl)phenyl)amino)propyl)-5,5-dimethylhexahydro-4,6-methanobenzo[d][1,3,2]dioxaborol-2-yl)-N-(3-((2-(2,6-dioxopiperidin-3-yl)-1-oxoisoindolin-4-yl)oxy)propyl)-N,3-dimethylbenzamide] | 0.1 to 0.5 µM | > 10 µM |
| Cc1ccc(C(=O)N(C)CCCOc2cccc3c2CN(C2CCC(=O)NC2=O)C3=O)cc1B1O[C@H]2C[C@H]3C[C@H](C3(C)C)[C@@]2(CCCNc2ccc(C(=O)N[C@H]3CC[C@H](Oc4ccc(C#N)c(Cl)c4)CC3)cc2)O1 (mixture of isomers) [Example 24, 3-((3aR,4R,6R,7aS)-3a-(3-((4-((trans-4-(3-chloro-4-cyanophenoxy)cyclohexyl)carbamoyl)phenyl)amino)propyl)-5,5-dimethylhexahydro-4,6-methanobenzo[d][1,3,2]dioxaborol-2-yl)-N-(3-((2-(2,6-dioxopiperidin-3-yl)-1-oxoisoindolin-4-yl)oxy)propyl)-N,4-dimethylbenzamide] | 0.1 to 0.5 µM | > 10 µM |
| Cc1cc([C@@H](C(=O)N2C[C@H](O)C[C@H]2C(=O)NCc2ccc(Cl)cc2B2O[C@H]3C[C@H]4C[C@H](C4(C)C)[C@@]3(CCNc3ccc(C(=O)N[C@H]4CC[C@H](Oc5ccc(C#N)c(Cl)c5)CC4)cc3)O2)C(C)C)on1 (racemic) [Example 22, (2S,4R)—N-(4-chloro-2-((3aR,4R,6R,7aS)-3a-(2-((4-((trans-4-(3-chloro-4-cyanophenoxy)cyclohexyl)carbamoyl)phenyl)amino)ethyl)-5,5-dimethylhexahydro-4,6-methanobenzo[d][1,3,2]dioxaborol-2-yl)benzyl)-4-hydroxy-1-((S)-3-methyl-2-(3-methylisoxazol-5-yl)butanoyl)pyrrolidine-2-carboxamide] | 0.1 to 0.5 µM | > 10 µM |
| Cc1cc2c(cc1B1O[C@H]3C[C@H]4C[C@H](C4(C)C)[C@@]3(CCOc3ccc(N4C(=S)N(c5ccc(C#N)c(C(F)(F)F)c5)C(=O)C4(C)C)cc3)O1)CN(CCCOc1cccc3c1CN(C1CCC(=O)NC1=O)C3=O)C2=O (stereo partly drawn) [Example 21, 4-(3-(4-(2-((3aR,4R,6R,7aS)-2-(2-(3-((2-(2,6-dioxopiperidin-3-yl)-1-oxoisoindolin-4-yl)oxy)propyl)-6-methyl-1-oxoisoindolin-5-yl)-5,5-dimethyltetrahydro-4,6-methanobenzo[d][1,3,2]dioxaborol-3a(4H)-yl)ethoxy)phenyl)-4,4-dimethyl-5-oxo-2-thioxoimidazolidin-1-yl)-2-(trifluoromethyl)benzonitrile] | 0.1 to 0.5 µM | > 10 µM |
